The record followed here is ChEMBL document CHEMBL4619792, “Amidate Prodrugs of O-2-Alkylated Pyrimidine Acyclic Nucleosides Display Potent Anti-Herpesvirus Activity” (ACS Med Chem Lett, 2020).

The term EC50 denotes the concentration that produces a half-maximal response. By CC50 is commonly meant the concentration giving 50% cytotoxicity.

The test system of data set [1] is Human immunodeficiency virus. The experiment in a line: Antiviral activity against HIV infected in human CEM cells assessed as inhibition of virus induced cytopathicity incubated for 4 days by microscopic analysis. The format is functional, organism-based. The conditions noted are these: ccrf-cem.
Data set [2] has as its system Moloney murine sarcoma virus. The experiment in a line: Antiviral activity against Moloney murine sarcoma virus infected in murine C3H/3T3 embryo fibroblasts assessed as inhibition of virus-induced transformation incubated for 6 days by microscopic analysis. The format is functional, organism-based.
Data set [3] has as its system Human alphaherpesvirus 3. Put plainly: Antiviral activity against thymidine kinase deficient Varicella zoster virus 07-1 infected in human HEL cells assessed as reduction in plaque formation measured after 5 days. The format is functional, organism-based. As to conditions: Human alphaherpesvirus 3, 07-1, HEL, 120 h.
The subject of data set [4] is Human alphaherpesvirus 3. The experiment in a line: Antiviral activity against thymidine kinase positive Varicella zoster virus OKA infected in human HEL cells assessed as reduction in plaque formation measured after 5 days. The format is functional, organism-based. The conditions noted are these: Human alphaherpesvirus 3, OKA, 120 h.
Data set [5] relates to Cytomegalovirus. The experiment in a line: Antiviral activity against Cytomegalovirus AD169 infected in human HEL cells assessed as reduction in virus-induced cytopathogenicity measured after 6 to 7 days. The format is functional, organism-based. The conditions noted are these: Human betaherpesvirus 5, AD169, HEL.
Data set [6] in a line: Cytotoxicity against human HEL cells assessed as minimum cytotoxic concentration for change in cellular morphology incubated for 3 days by microscopic analysis. The format is cell-based.
For data set [7], the system named is Cytomegalovirus. Put plainly: Antiviral activity against Cytomegalovirus Davis infected in human HEL cells assessed as reduction in virus-induced cytopathogenicity measured after 6 to 7 days. The conditions noted are these: Human betaherpesvirus 5, Davis. The format is functional, organism-based. A general note: Cytopathic effects are the visible damage that an infection or toxin causes in cultured cells.

Data set [8] is described as follows: Cytotoxicity against human HEL cells assessed as reduction in cell proliferation incubated for 3 days by Coulter counter method. The format is cell-based.
Data set [9] can be described thus: Selectivity index, ratio of CC50 for human HEL cells to EC50 for antiviral activity against Cytomegalovirus Davis infected in human HEL cells. The format is toxicity, cell-based. The conditions noted are these: read-out: Ratio CC50/EC50.
A short description of data set [10]: Selectivity index, ratio of CC50 for human HEL cells to EC50 for antiviral activity against thymidine kinase deficient Varicella zoster virus 07-1 infected in human HEL cells. The format is toxicity, cell-based. The conditions noted are these: read-out: Ratio CC50/EC50.
A further data set has as its system Hepatitis B virus. Put plainly: Antiviral activity against Hepatitis B virus ayw1 infected in human HepG2.2.15 cells assessed as reduction in virus DNA replication measured after 6 days by qRT-PCR analysis. The format is functional, organism-based. As to conditions: ayw1, HepG2 2.2.15, 144 h. (Quantitative PCR measures a nucleic acid by following its amplification.)

Data set [11] in a line: Selectivity index, ratio of CC50 for human HEL cells to EC50 for antiviral activity against thymidine kinase positive Varicella zoster virus OKA infected in human HEL cells. The format is toxicity, cell-based. The conditions noted are these: read-out: Ratio CC50/EC50.
Data set [12] can be described thus: Selectivity index, ratio of CC50 for human HEL cells to EC50 for antiviral activity against Cytomegalovirus AD169 infected in human HEL cells. The format is toxicity, cell-based. The conditions noted are these: read-out: Ratio CC50/EC50.

Consider `Cc1c(N)nc(N)nc1OCCOCP(=O)(O)O`, for which the EC50 in [1] and in [2] was 0.16 to 0.43 µM each time.

As to `CCCCOC(=O)[C@@H](NP(=O)(COC(C)COc1nccc(N)n1)Oc1ccccc1)C(C)C` (some centres undefined), the EC50 in the data set on Human alphaherpesvirus 3 [3], with Human alphaherpesvirus 3 [4], in the data set with Cytomegalovirus [5] and in the data set on Cytomegalovirus [7] was over 100 µM in each case. The MCC at 72 h in [6] was over 100 µM.

For `Nc1ccnc(OC[C@H](CF)OCP(=O)(O)O)n1`, the EC50 was 25.3 µM with Human alphaherpesvirus 3 [3], 3.79 µM with Human alphaherpesvirus 3 [4], 2.36 µM in the data set on Cytomegalovirus [5] and 0.8 µM with Cytomegalovirus [7]. Also, the CC50 at 72 h in data set [8] was over 100 µM. The MCC at 72 h in [6] was over 100 µM.

In the case of `CCCCCOC(=O)[C@@H](NP(=O)(CO[C@H](CF)COc1nccc(N)n1)Oc1ccccc1)C(C)C` (mixture of isomers), the EC50 was 35.9 µM in the data set with Human alphaherpesvirus 3 [3], 38.6 µM in the data set on Human alphaherpesvirus 3 [4], over 100 µM in the data set on Cytomegalovirus [5] and 7.61 µM with Cytomegalovirus [7]. Besides, the MCC at 72 h in data set [6] is over 100 µM.

As for `Nc1ccnc(OC[C@@H](CF)OCP(=O)(O)O)n1` (mixture of isomers), the EC50 in the data set with Human alphaherpesvirus 3 [3], with Human alphaherpesvirus 3 [4], with Cytomegalovirus [5] and in the data set with Cytomegalovirus [7] was over 100 µM in each case. The half-maximal cytotoxic concentration (CC50) at 72 h in data set [8] was over 100 µM. Moreover, in data set [6], the MCC at 72 h is over 100 µM.

Take `CCCCCOC(=O)[C@@H](NP(=O)(CO[C@@H](C)COc1ncc(F)c(N)n1)Oc1ccccc1)C(C)C` (mixture of isomers): the EC50 in the data set with Human alphaherpesvirus 3 [3], with Human alphaherpesvirus 3 [4], in the data set on Cytomegalovirus [5] and with Cytomegalovirus [7] was over 100 µM throughout. Besides, in [6], the MCC at 72 h was over 100 µM.

As for `CCCCCOC(=O)[C@@H](NP1(=O)CO[C@@H](COc2nccc(N)n2)CO1)C(C)C` (mixture of isomers), the EC50 in the data set with Human alphaherpesvirus 3 [3], in the data set with Human alphaherpesvirus 3 [4], with Cytomegalovirus [5] and with Cytomegalovirus [7] was over 100 µM each time. In addition, the MCC at 72 h in [6] was over 100 µM.

With `CCCCCOC(=O)[C@@H](NP(=O)(CO[C@@H](CF)COc1nccc(N)n1)Oc1ccccc1)C(C)C` (mixture of isomers), the EC50 was 0.18 µM with Human alphaherpesvirus 3 [3]; 0.36 µM in the data set on Human alphaherpesvirus 3 [4]; 2.1 to 8.71 µM in the data set with Hepatitis B virus; 0.26 µM with Cytomegalovirus [5]; 0.097 µM with Cytomegalovirus [7]. The selectivity ratio in [9], in data set [10], in data set [11] and in [12] was 220 to 818 in each case. In [8], the 50% cytotoxic concentration (CC50) at 72 h is 79.3 µM. Besides, the MCC at 72 h in data set [6] was over 100 µM.

With `CCCCCOC(=O)C[C@H](NP(=O)(CO[C@@H](CF)COc1nccc(N)n1)Oc1ccccc1)C(=O)OCCCCC` (mixture of isomers), the EC50 was 0.098 µM in the data set on Human alphaherpesvirus 3 [3]; 0.36 µM with Human alphaherpesvirus 3 [4]; 2.1 to 8.71 µM with Hepatitis B virus; 0.54 µM in the data set on Cytomegalovirus [5]; 0.094 µM with Cytomegalovirus [7]. Further, the selectivity ratio in data set [9], in [10], in data set [11] and in data set [12] was 96 to 551 throughout. In addition, the CC50 at 72 h in data set [8] was found to be 51.8 µM. Also, the MCC at 72 h in data set [6] is over 100 µM.

Regarding `CCCCCOC(=O)[C@@H](NP(=O)(CO[C@H](C)COc1ncc(F)c(N)n1)Oc1ccccc1)C(C)C` (mixture of isomers), the EC50 in the data set on Human alphaherpesvirus 3 [3], in the data set with Human alphaherpesvirus 3 [4], in the data set with Cytomegalovirus [5] and in the data set with Cytomegalovirus [7] was over 100 µM each time. For the same compound, in data set [6], the MCC at 72 h is over 100 µM.

Take `CCCCCOC(=O)[C@@H](NP(=O)(CO[C@@H](CF)COc1ncc(F)c(N)n1)Oc1ccccc1)C(C)C` (mixture of isomers): the EC50 in the data set with Human alphaherpesvirus 3 [3] was 2.94 µM; in the data set on Human alphaherpesvirus 3 [4], 6.73 µM; in the data set on Hepatitis B virus it was 2.1 to 8.71 µM; with Cytomegalovirus [5], 11.2 µM; in the data set with Cytomegalovirus [7], 4.7 µM. Moreover, the CC50 at 72 h in data set [8] is over 100 µM. For the same compound, the MCC at 72 h in data set [6] is over 100 µM.

Regarding `CCCCCOC(=O)[C@@H](NP1(=O)CO[C@H](COc2nccc(N)n2)CO1)C(C)C` (mixture of isomers), the EC50 in the data set on Human alphaherpesvirus 3 [3] came to 35.7 µM; with Human alphaherpesvirus 3 [4] it was 53.6 µM; in the data set on Cytomegalovirus [5], 14 µM; in the data set on Cytomegalovirus [7], 4.76 µM. Further, the half-maximal cytotoxic concentration (CC50) at 72 h in data set [8] was over 100 µM. Besides, the MCC at 72 h in data set [6] is over 100 µM.

Take `CCCCCOC(=O)C[C@H](NP(=O)(CO[C@H](CF)COc1nccc(N)n1)Oc1ccccc1)C(=O)OCCCCC` (mixture of isomers): the concentration giving a half-maximal response (EC50) in the data set with Human alphaherpesvirus 3 [3] worked out at 24.7 µM; with Human alphaherpesvirus 3 [4] it was 38.2 µM; in the data set on Cytomegalovirus [5], 62.8 µM; in the data set on Cytomegalovirus [7] it was 48.2 µM. The CC50 at 72 h in data set [8] was over 100 µM. The MCC at 72 h in data set [6] was over 100 µM.

Consider `CCCCCOC(=O)[C@@H](NP(=O)(CO[C@H](C)COc1nccc(N)n1)Oc1ccccc1)C(C)C` (mixture of isomers), for which the 50% effective concentration (EC50) with Human alphaherpesvirus 3 [3], in the data set with Human alphaherpesvirus 3 [4], with Cytomegalovirus [5] and in the data set on Cytomegalovirus [7] was over 100 µM throughout. In data set [6], the MCC at 72 h is over 100 µM.

With `CCCCCOC(=O)[C@@H](NP1(=O)CO[C@H](COc2ncc(F)c(N)n2)CO1)C(C)C` (mixture of isomers), the EC50 in the data set on Human alphaherpesvirus 3 [3], in the data set with Human alphaherpesvirus 3 [4], in the data set with Cytomegalovirus [5] and in the data set with Cytomegalovirus [7] was over 100 µM in each case. Also, the MCC at 72 h in [6] was over 100 µM.

On to `CCCCCOC(=O)[C@@H](NP(=O)(CO[C@@H](C)COc1nccc(N)n1)Oc1ccccc1)C(C)C` (mixture of isomers), for which the EC50 in the data set on Human alphaherpesvirus 3 [3], in the data set on Human alphaherpesvirus 3 [4], in the data set with Cytomegalovirus [5] and in the data set with Cytomegalovirus [7] was over 100 µM throughout. For the same compound, the MCC at 72 h in data set [6] is over 100 µM.

As for `CCCCCOC(=O)[C@@H](NP(=O)(CO[C@H](CF)COc1ncc(F)c(N)n1)Oc1ccccc1)C(C)C` (mixture of isomers), the EC50 with Human alphaherpesvirus 3 [3], in the data set on Human alphaherpesvirus 3 [4], in the data set with Cytomegalovirus [5] and in the data set with Cytomegalovirus [7] was over 100 µM in each case. In addition, the MCC at 72 h in data set [6] was over 100 µM.

As to `CCCCCOC(=O)[C@@H](NP1(=O)CO[C@@H](COc2ncc(F)c(N)n2)CO1)C(C)C` (mixture of isomers), the EC50 in the data set with Human alphaherpesvirus 3 [3], in the data set with Human alphaherpesvirus 3 [4], in the data set on Cytomegalovirus [5] and in the data set on Cytomegalovirus [7] was over 100 µM throughout. In addition, the MCC at 72 h in [6] was over 100 µM.

Regarding `Nc1nc2c(ncn2COCCO)c(=O)[nH]1` [ACYCLOVIR], in data set [8], the CC50 at 72 h is over 444 µM. The MCC at 72 h in data set [6] was over 444 µM.

In the case of `O=c1[nH]c(=O)n([C@H]2C[C@H](O)[C@@H](CO)O2)cc1/C=C/Br` [BRIVUDINE], the figures for the EC50 in the data set on Human alphaherpesvirus 3 [3] and in the data set on Human alphaherpesvirus 3 [4] were 0.18 µM and 0.089 µM, respectively. Besides, the CC50 at 72 h in data set [8] is over 300 µM. Also, in data set [6], the MCC at 72 h was over 300 µM.

As for `Nc1ccn(C[C@@H](CO)OCP(=O)(O)O)c(=O)n1` [CIDOFOVIR], the CC50 at 72 h in data set [8] is over 317 µM. For the same compound, the EC50 with Cytomegalovirus [5] was 1.74 µM; in the data set with Cytomegalovirus [7], 0.94 µM. Moreover, the MCC at 72 h in [6] was over 317 µM.

As for `Nc1nc2c(ncn2COC(CO)CO)c(=O)[nH]1` [GANCICLOVIR], the CC50 at 72 h in [8] is over 394 µM. Further, the EC50 in the data set on Cytomegalovirus [5] was determined as 13 µM; in the data set on Cytomegalovirus [7], 4.44 µM. Also, the MCC at 72 h in [6] is over 394 µM.
